In patent US8530493B2, “Indolopyridines as Eg5 kinesin modulators” (4SC AG, priority 2006, dated 2013):

The compounds below were run on RKO p21 uninduced (proliferating) colon adenocarcinoma cells (assay: Alamar Blue cell viability assay, RKO p21 uninduced (proliferating)). Settings: Homo sapiens, Table B3, anti-proliferative/cytotoxic activity, 72 hours, read-out: −log EC50 RKO p21 uninduced (proliferating) (converted).
Type: cell-based
Protocol: The anti-proliferative/cytotoxic activity of the compounds described herein can be tested on subclones of RKO human colon adenocarcinoma cells (Schmidt et al., Oncogene 19, 2423-2429; 2000) using the Alamar Blue cell viability assay (described in O'Brien et al. Eur J Biochem 267, 5421-5426, 2000). The compounds are dissolved as 10 mM solutions in DMSO and subsequently diluted in semi-logarithmic steps. DMSO dilutions are further diluted 1:100 into Dulbecco's modified Eagle's medium (DMEM) containing 10% fetal calf serum to a final concentration twice as much as the final concentration in the test. RKO subclones are seeded into 96 well flat bottom plates at a density of 4000 cells per well in a volume of 50 μl per well. 24 hours after seeding the 50 μl each of the compound dilutions in DMEM medium are added into each well of the 96 well plate. Each compound dilution is tested as triplicates. Wells containing untreated control cells are filled with 50 μl DMEM medium containing 1% DMSO. The cells are then incubated with the substances for 72 hours at 37° C. in a humidified atmosphere containing 5% carbon dioxide. To determine the viability of the cells, 10 μl of an Alamar Blue solution (Biosource) are added and the fluorescence is measured at an extinction of 544 nm and an emission of 590 nm. For the calculation of the cell viability the emission value from untreated cells is set as 100% viability and the emission rates of treated cells are set in relation to the values of untreated cells. Viabilities are expressed as % values. The Graphpad Prism program is used for the calculation of EC50 values for anti-proliferative/cytotoxic activity out of the obtained dose-response curves.
To determine the cell cycle specific mode of action, subclones of RKO colon adenocarcinoma cells (RKOp21 or RKOp27 as described by Schmidt et al. in Oncogene 19, 2423-2429; 2000) are seeded into 96 well flat bottom plates at a density of 16000 cells per well in a volume of 50 μl per well in DMEM growth medium with 10% FCS containing 10 μM Ponasterone A. 24 hours after seeding the 50 μl each of the compound dilutions in DMEM medium are added into each well of the 96-well plate. Each compound dilution is tested as triplicates. Wells containing untreated control cells are filled with 50 μl DMEM medium containing 1% DMSO. The cells are then incubated with the substances for 72 hours at 37° C. in a humidified atmosphere containing 5% carbon dioxide. To determine the viability of the cells, 10 μl of an Alamar Blue solution (Biosource) are added and the fluorescence is measured at an extinction of 544 nm and an emission of 590 nm. For the calculation of the cell viability the emission value from untreated cells is set as 100% viability and the emission rates of treated cells are set in relation to the values of untreated cells. Viabilities are expressed as % values. The Graphpad Prism program (GraphPad Software, Inc) is used for the calculation of EC50 values out of the obtained dose-response curves. Viability is compared of proliferating cells grown in the absence of the inducer Ponasterone A, versus viability of cells arrested by the expression of ectopic p27Kip1 induced by Ponasterone A.
Representative values for anti-proliferation/cytotoxicity [measured as −log EC50 (mol/l)] determined in the aforementioned assays follow from the following tables B1, B2 and B3, in which the numbers of the compounds correspond to the numbers of the examples.
`C[C@@]12Cc3c([nH]c4ccc(Br)cc34)[C@@H](c3cccc(O)c3)N1C(=O)N(CCCNC1CC1)C2=O` (racemic) [Example 215, (3aSR,10RS)-6-Bromo-2-(3-cyclopropylamino-propyl)-10-(3-hydroxy-phenyl)-3a-methyl-3a,4,9,10-tetrahydro-2,9,10a-triaza-cyclopenta[b]fluorene-1,3-dione] was tested, and the EC50 was no more than 0.0398 µM.
`CCOc1ccc2[nH]c3c(c2c1)C[C@@]1(C)C(=O)N(CCCN(C)CCO)C(=O)N1[C@@H]3c1cccc(O)c1` (racemic) [Example 193, (3aSR,10RS)-6-Ethoxy-2-{3-[(2-hydrox-ethyl)-methyl-amino]-propyl}-10-(3-hydroxy-phenyl)-3a-methyl-3a,4,9,10-tetrahydro-2,9,10a-triaza-cyclopenta[b]fluorene-1,3-dione] was tested, and the EC50 was 0.0398 to 0.251 µM.
`CC(C)(C)NCCN1C(=O)N2[C@H](c3cccc(O)c3)c3[nH]c4cc(F)c(Cl)cc4c3C[C@@]2(C)C1=O` (racemic) [Example 345, (3aSR,10RS)-2-(2-tert-Butylamino-ethyl)-6-chloro-7-fluoro-10-(3-hydroxy-phenyl)-3a-methyl-3a,4,9,10-tetrahydro-2,9,10a-triaza-cyclopenta[b]fluorene-1,3-dione] showed an EC50 of no more than 0.0398 µM.
Compound `CCOc1ccc2[nH]c3c(c2c1)C[C@@]1(C)C(=O)N(CCNC(C)(C)C)C(=O)N1[C@@H]3c1cccc(O)c1` (racemic) [Example 156, (3aSR,10RS)-2-(2-tert-Butylamino-ethyl)-6-ethoxy-10-(3-hydroxy-phenyl)-3a-methyl-3a,4,9,10-tetrahydro-2,9,10a-triaza-cyclopenta[b]fluorene-1,3-dione] has an EC50 of no more than 0.0398 µM.
With `CC(C)N(C)CCN1C(=O)N2[C@H](c3cccc(O)c3)c3[nH]c4cc(F)c(Cl)cc4c3C[C@@]2(C)C1=O` (racemic) [Example 352, (3aSR,10RS)-6-Chloro-7-fluoro-10-(3-hydroxy-phenyl)-2-[2-(isopropyl-methyl-amino)-ethyl]-3a-methyl-3a,4,9,10-tetrahydro-2,9,10a-triaza-cyclopenta[b]fluorene-1,3-dione] the EC50 was no more than 0.0398 µM.
Compound `CC1CCN(CCN2C(=O)N3[C@H](c4cccc(O)c4)c4[nH]c5ccc(OC(F)F)cc5c4C[C@@]3(C)C2=O)CC1` (racemic) [Example 293, (3aSR,10RS)-6-(1,1-Difluoro-methoxy)-10-(3-hydroxy-phenyl)-3a-methyl-2-[2-(4-methyl-piperidin-1-yl)-ethyl]-3a,4,9,10-tetrahydro-2,9,10a-triaza-cyclopenta[b]fluorene-1,3-dione] has an EC50 of 0.0398 to 0.251 µM.
`CCN(C)CCN1C(=O)N2[C@H](c3cccc(O)c3)c3[nH]c4ccc(OC(F)F)cc4c3C[C@@]2(C)C1=O` (racemic) [Example 275, (3aSR,10RS)-6-(1,1-Difluoro-methoxy)-2-[2-(ethyl-methyl-amino)-ethyl]-10-(3-hydroxy-phenyl)-3a-methyl-3a,4,9,10-tetrahydro-2,9,10a-triaza-cyclopenta[b]fluorene-1,3-dione] showed an EC50 of no more than 0.0398 µM.
With `C[C@@]12Cc3c([nH]c4cc(F)c(Cl)cc34)[C@@H](c3cccc(O)c3)N1C(=O)N(CCNCCO)C2=O` (racemic) [Example 342, (3aSR,10RS)-6-Chloro-7-fluoro-2-[2-(2-hydroxy-ethylamino)-ethyl]-10-(3-hydroxy-phenyl)-3a-methyl-3a,4,9,10-tetrahydro-2,9,10a-triaza-cyclopenta[b]fluorene-1,3-dione] the EC50 was no more than 0.0398 µM.
Work on `COc1cc2c3c([nH]c2cc1F)[C@@H](c1cccc(O)c1)N1C(=O)N(CCN(C)C(C)C)C(=O)[C@]1(C)C3` (racemic) [Example 259, (3aSR,10RS)-7-Fluoro-10-(3-hydroyx-phenyl)-2-[2-(isopropyl-methyl-amino)-ethyl]-6-methoxy-3a-methyl-3a,4,9,10-tetrahydro-2,9,10a-triaza-cyclopenta[b]fluorene-1,3-dione] yielded an EC50 of 0.0398 to 0.251 µM.
With `CCOc1ccc2[nH]c3c(c2c1)C[C@@]1(C)C(=O)N(CCCN(CC)CCOC)C(=O)N1[C@@H]3c1cccc(O)c1` (racemic) [Example 195, (3aSR,10RS)-6-Ethoxy-2-{3-[ethyl-(2-methoxy-ethyl)-amino]-propyl}-10-(3-hydroxy-phenyl)-3a-methyl-3a,4,9,10-tetrahydro-2,9,10a-triaza-cyclopenta[b]fluorene-1,3-dione] the EC50 was 0.0398 to 0.251 µM.
Compound `CN(CCO)CCCN1C(=O)N2[C@H](c3cccc(O)c3)c3[nH]c4ccc(Br)cc4c3C[C@@]2(C)C1=O` (racemic) [Example 370, (3aSR,10RS)-6-Bromo-2-{3-[(2-hydroxy-ethyl)-methyl-amino]-propyl}-10-(3-hydroxy-phenyl)-3a-methyl-3a,4,9,10-tetrahydro-2,9,10a-triaza-cyclopenta[b]fluorene-1,3-dione] has an EC50 of no more than 0.0398 µM.
`COc1cc2c3c([nH]c2cc1F)[C@@H](c1cccc(O)c1)N1C(=O)N(CCCNC2CCC2)C(=O)[C@]1(C)C3` (racemic) [Example 333, (3aSR,10RS)-2-(3-Cyclobutylamino-propyl)-7-fluoro-10-(3-hydroxy-phenyl)-6-methoxy-3a-methyl-3a,4,9,10-tetrahydro-2,9,10a-triaza-cyclopenta[b]fluorene-1,3-dione] gave an EC50 of 0.0398 to 0.251 µM.
`COc1cc2c3c([nH]c2cc1F)[C@@H](c1cccc(O)c1)N1C(=O)N(CCCN(C)C)C(=O)[C@]1(C)C3` (racemic) [Example 310, (3aSR,10RS)-2-(3-Dimethylamino-propyl)-7-fluoro-10-(3-hydroxy-phenyl)-6-methoxy-3a-methyl-3a,4,9,10-tetrahydro-2,9,10a-triaza-cyclopenta[b]fluorene-1,3-dione] was tested, and the EC50 was 0.0398 to 0.251 µM.
`C#CCNCCN1C(=O)N2[C@H](c3cccc(O)c3)c3[nH]c4ccc(OC(F)F)cc4c3C[C@@]2(C)C1=O` (racemic) [Example 287, (3aSR,10RS)-6-(1,1-Difluoro-methoxy)-10-(3-hydroxy-phenyl)-3a-methyl-2-(2-prop-2-ynylamino-ethyl)-3a,4,9,10-tetrahydro-2,9,10a-triaza-cyclopenta[b]fluorene-1,3-dione] showed an EC50 of 0.0398 to 0.251 µM.
Work on `CCN(CC)CCCN1C(=O)N2[C@H](c3cccc(O)c3)c3[nH]c4cc(F)c(Cl)cc4c3C[C@@]2(C)C1=O` (racemic) [Example 469, (3aSR,10RS)-6-Chloro-2-(3-diethylamino-propyl)-7-fluoro-10-(3-hydroxy-phenyl)-3a-methyl-3a,4,9,10-tetrahydro-2,9,10a-triaza-cyclopenta[b]fluorene-1,3-dione] yielded an EC50 of no more than 0.0398 µM.
Work on `CCN(CC)CCN1C(=O)N2[C@H](c3cccc(O)c3)c3[nH]c4cc(F)c(Cl)cc4c3C[C@@]2(C)C1=O` (racemic) [Example 336, (3aSR,10RS)-6-Chloro-2-(2-diethylamino-ethyl)-7-fluoro-10-(3-hydroyx-phenyl)-3a-methyl-3a,4,9,10-tetrahydro-2,9,10a-triaza-cyclopenta[b]fluorene-1,3-dione] yielded an EC50 of 0.0398 to 0.251 µM.
`C[C@@]12Cc3c([nH]c4cc(F)c(Cl)cc34)[C@@H](c3cccc(O)c3)N1C(=O)N(CCN1CCCC1)C2=O` (racemic) [Example 354, (3aSR,10RS)-6-Chloro-7-fluoro-10-(3-hydroxy-phenyl)-3a-methyl-2-(2-pyrrolidin-1-yl-ethyl)-3a,4,9,10-tetrahydro-2,9,10a-triaza-cyclopenta[b]fluorene-1,3-dione] showed an EC50 of no more than 0.0398 µM.
